Test: Elution of antibiotics from cured α-BSM cement ball into phosphate buffer
Assay type: physicochemical
Conditions: other material used as carrier instead of the hydroxyapatite-like cement pastes
Description: 1 g of cement powder (α-BSM, WO 96/36562) and 0.7 ml of water in which 42 mg of gentamycin sulfate have been dissolved are mixed with one another. A paste is obtained by this means, which is shaped to give a ball of about 1 cm diameter. This ball is added at 37° C. to 20 ml of phosphate buffer according to Sörensen (pH 7.4). After approximately 10 minutes, the cement ball cures. At defined times, samples are taken from the buffer solution and the concentration of the antibiotic is determined microbiologically or chromatographically according to standard methods. The determined antibiotic concentrations in μg/ml correspond to the concentrations released in the buffer.
Analogously to Example 1, a previously cured ball of agar/gentamycin sulfate is eluted and the corresponding concentrations are measured.
Analogously to Example 1, an α-BSM/cefazolin ball is eluted and the corresponding concentrations are measured.
Analogously to Example 1, an α-BSM/netilmycin sulfate ball is eluted and the corresponding concentrations are measured.

gentamycin sulfate
release characteristics of the antibiotic (in words): released just as rapidly
